The text below walks through data of ChEMBL document CHEMBL4312010, “Synthesis and antibacterial evaluation of novel oxazolidinone derivatives containing a piperidinyl moiety” (Bioorg Med Chem Lett, 2019).

Data set [1] concerns Staphylococcus aureus. The data set is described as follows: Antibacterial activity agianst methicillin-sensitive Staphylococcus aureus. In kind it is functional.
Data set [2] has as its system Staphylococcus aureus. The experiment in a line: Antibacterial activity agianst Staphylococcus aureus ATCC 29213. Format: functional.
The subject of data set [3] is Enterococcus faecalis. The experiment in a line: Antibacterial activity agianst linezolid-resistant Enterococcus faecalis. In kind it is functional.
Data set [4] deals with Enterococcus faecium. The experiment in a line: Antibacterial activity agianst vancomycin-resistant Enterococcus faecium. Format: functional.
Data set [5] has as its system Staphylococcus aureus. The experiment in a line: Antibacterial activity agianst methicillin-resistant Staphylococcus aureus. In kind it is functional.
In data set [6] the test system is Enterococcus faecium. The data set is described as follows: Antibacterial activity agianst vancomycin-resistant Enterococcus faecium clinical isolates. In kind it is functional.
For data set [7], the system named is Enterococcus faecalis. The data set is described as follows: Antibacterial activity agianst linezolid-resistant Enterococcus faecalis clinical isolates. Format: functional.
The target of data set [8] is T1, MAO-A (amine oxidase [flavin-containing] A) (Homo sapiens, UniProt P21397).
T1 sequence (P21397 whole entry): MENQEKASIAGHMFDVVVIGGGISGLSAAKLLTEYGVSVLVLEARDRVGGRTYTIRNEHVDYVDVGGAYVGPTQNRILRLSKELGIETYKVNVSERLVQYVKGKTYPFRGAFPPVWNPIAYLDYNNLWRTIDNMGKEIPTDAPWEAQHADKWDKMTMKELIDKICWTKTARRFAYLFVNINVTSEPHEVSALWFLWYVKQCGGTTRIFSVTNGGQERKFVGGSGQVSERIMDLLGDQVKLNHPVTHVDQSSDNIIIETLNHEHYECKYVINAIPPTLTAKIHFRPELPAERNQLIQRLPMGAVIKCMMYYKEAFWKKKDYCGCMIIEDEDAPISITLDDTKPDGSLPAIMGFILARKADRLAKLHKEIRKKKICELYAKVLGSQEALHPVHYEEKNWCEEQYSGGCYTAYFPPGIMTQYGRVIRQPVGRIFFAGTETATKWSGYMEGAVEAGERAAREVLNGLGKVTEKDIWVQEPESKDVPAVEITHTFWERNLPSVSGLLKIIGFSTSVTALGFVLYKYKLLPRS
The data set is described as follows: Inhibition of human MAO-A at 30 uM relative to control.

Data set [9] has as its system Staphylococcus aureus. The experiment in a line: Antibacterial activity agianst methicillin-sensitive Staphylococcus aureus clinical isolates. Format: functional.
The subject of data set [10] is HepG2. The data set is described as follows: Cytotoxicity against human HepG2 cells assessed as reduction in cell viability. In kind it is cell-based.
Data set [11] can be described thus: Metabolic stability in human liver microsomes assessed as parent compound remaining after 45 mins in presence of NADPH relative to control. Format: ADME, Microsome. The settings on record: read-out: Stability. Background: Microsomes from liver hold many membrane-bound enzymes, among them those of drug oxidation.
Data set [12] has as its system Staphylococcus aureus. The experiment in a line: Antibacterial activity agianst methicillin-resistant Staphylococcus aureus clinical isolates. In kind it is functional.
A short description of data set [13]: Intrinsic clearance in human liver microsomes. Format: ADME, Microsome. The settings on record: read-out: CLH.
Data set [14] concerns Enterococcus faecalis. The experiment in a line: Potency index, ratio of linezolid MIC to compound MIC for antibacterial activity against linezolid-resistant Enterococcus faecalis clinical isolates. Format: functional.
A short description of data set [15]: Half life in human liver microsomes. Format: ADME, Microsome.
Data set [16] relates to Enterococcus faecalis. The experiment in a line: Potency index, ratio of linezolid MIC to compound MIC for antibacterial activity against linezolid-resistant Enterococcus faecalis. Format: functional.

SMILES strings stand for the structures. Values after ≈ are worked out from the molar mass of the structure shown.

As for `CC(=O)NC[C@H]1CN(c2ccc(N3CCC(N(C)c4ccc(Br)cc4)CC3)c(F)c2)C(=O)O1`, the MIC (commonly the smallest concentration in the dilution series that meets the test's criterion for growth inhibition) in data set [1] came out at 2 mg/L (≈ 3.85 µM); in [2] it was 2 mg/L (≈ 3.85 µM); in [3], 1 mg/L (≈ 1.93 µM); in data set [4], 1 mg/L (≈ 1.93 µM); in data set [5], 2 mg/L (≈ 3.85 µM).

Regarding `CC(=O)NC[C@H]1CN(c2ccc(N3CCN(Cc4ccc([N+](=O)[O-])o4)CC3)c(F)c2)C(=O)O1` [RANBEZOLID], the MIC in data set [1], in data set [2], in [3], in data set [4] and in data set [5] was 0.5 mg/L (≈ 1.08 µM) each time.

As for `CC(=O)NC[C@H]1CN(c2ccc(N3CCC(Nc4ccc(F)cc4)CC3)c(F)c2)C(=O)O1`, the MIC in [1] was determined as 1 mg/L (≈ 2.25 µM); in data set [2], 1 mg/L (≈ 2.25 µM); in [3], 1 mg/L (≈ 2.25 µM); in data set [4], 1 mg/L (≈ 2.25 µM); in [5] it was 0.5 mg/L (≈ 1.12 µM).

Consider `CC(=O)NC[C@H]1CN(c2ccc(N3CCC(Nc4cccc(Br)c4)CC3)c(F)c2)C(=O)O1`, for which the MIC in [1], in [2], in data set [3], in [4] and in data set [5] was 2 mg/L (≈ 3.96 µM) throughout.

`CC(=O)NC[C@H]1CN(c2ccc(N3CCN(/N=C/c4ccc([N+](=O)[O-])o4)CC3)c(F)c2)C(=O)O1`: the MIC in data set [2] came out at 0.5 mg/L (≈ 1.05 µM); in data set [4] it was 1 mg/L (≈ 2.11 µM); in data set [5], 1 mg/L (≈ 2.11 µM).

Regarding `CC(=O)NC[C@H]1CN(c2ccc(N3CCC(Nc4ccc(OC(F)(F)F)cc4)CC3)c(F)c2)C(=O)O1`, the MIC in data set [1] came to 1 mg/L (≈ 1.96 µM); in data set [2] it was 1 mg/L (≈ 1.96 µM); in [3] it was 0.5 mg/L (≈ 0.979 µM); in data set [4], 0.5 mg/L (≈ 0.979 µM); in [5], 1 mg/L (≈ 1.96 µM).

Regarding `CC(=O)NC[C@H]1CN(c2ccc(N3CCC(Nc4ccccc4)CC3)c(F)c2)C(=O)O1`, the MIC was 0.25 to 0.5 mg/L (≈ 0.586 to 1.17 µM) in data set [6]; 1 mg/L (≈ 2.34 µM) in [1]; 1 mg/L (≈ 2.34 µM) in data set [2]; 0.125 to 0.25 mg/L (≈ 0.293 to 0.586 µM) in [7]; 0.5 mg/L (≈ 1.17 µM) in data set [3]; 1 mg/L (≈ 2.34 µM) in [4]. In addition, the MIC is 0.5 to 1 mg/L (≈ 1.17 to 2.34 µM) in data set [9] and 1 mg/L (≈ 2.34 µM) in data set [5]. Also, testing at 30 µM in [8] gave an inhibition of 85%.

In the case of `CC(=O)NC[C@H]1CN(c2ccc(N3CCC(Nc4ccc(Cl)cc4)CC3)c(F)c2)C(=O)O1`, the MIC in data set [1], in data set [2], in [3], in data set [4] and in data set [5] was 2 mg/L (≈ 4.34 µM) each time.

On to `CC(=O)NC[C@H]1CN(c2ccc(N3CCC(Nc4ccccc4Br)CC3)c(F)c2)C(=O)O1`, for which the MIC in data set [1], in data set [2], in [3], in data set [4] and in [5] was 2 mg/L (≈ 3.96 µM) throughout.

For the compound `CC(=O)NC[C@H]1CN(c2ccc(N3CCOCC3)c(F)c2)C(=O)O1` [LINEZOLID], the MIC was 1 to 4 mg/L (≈ 2.96 to 11.9 µM) in [6]; 1 mg/L (≈ 2.96 µM) in data set [1]; 1 mg/L (≈ 2.96 µM) in [2]; more than 16 mg/L in data set [7]; more than 16 mg/L in data set [3]; 2 mg/L (≈ 5.93 µM) in [4]. The MIC is 1 to 4 mg/L (≈ 2.96 to 11.9 µM) in data set [12], 1 to 2 mg/L (≈ 2.96 to 5.93 µM) in data set [9] and 1 mg/L (≈ 2.96 µM) in data set [5]. The IC50 (as a rule, the concentration that gives 50% inhibition) in [10] was more than 64 µM. Moreover, the remaining at 0.75 h in data set [11] was 18%. For the same compound, in [8], 30 µM produced 75% inhibition.

As to `CC(=O)NC[C@H]1CN(c2ccc(N3CCC(NCc4ccc(F)cc4)CC3)c(F)c2)C(=O)O1`, the MIC in data set [1] came to 1 mg/L (≈ 2.18 µM); in data set [2], 1 mg/L (≈ 2.18 µM); in data set [3], 2 mg/L (≈ 4.36 µM); in data set [4], 2 mg/L (≈ 4.36 µM); in [5], 1 mg/L (≈ 2.18 µM).

Consider `CC(=O)NC[C@H]1CN(c2ccc(N3CCC(Nc4ccccc4OC(F)(F)F)CC3)c(F)c2)C(=O)O1`, for which the MIC in data set [1] was 2 mg/L (≈ 3.92 µM); in data set [2], 2 mg/L (≈ 3.92 µM); in [3] it was 1 mg/L (≈ 1.96 µM); in [4], 2 mg/L (≈ 3.92 µM); in [5], 2 mg/L (≈ 3.92 µM).

As to `CC(=O)NC[C@H]1CN(c2ccc(N3CCC(Nc4ccc(C(C)C)cc4)CC3)c(F)c2)C(=O)O1`, the MIC in data set [1] amounted to 2 mg/L (≈ 4.27 µM); in data set [2] it was 2 mg/L (≈ 4.27 µM); in data set [3], 0.5 mg/L (≈ 1.07 µM); in data set [4], 0.5 mg/L (≈ 1.07 µM); in data set [5], 1 mg/L (≈ 2.13 µM).

In the case of `CC(=O)NC[C@H]1CN(c2ccc(N3CCC(NCc4ccccc4)CC3)c(F)c2)C(=O)O1`, the MIC turned out to be 1 mg/L (≈ 2.27 µM) in data set [1]; 2 mg/L (≈ 4.54 µM) in data set [2]; 2 mg/L (≈ 4.54 µM) in [3]; 2 mg/L (≈ 4.54 µM) in [4]; 1 mg/L (≈ 2.27 µM) in data set [5].

On to `CC(=O)NC[C@H]1CN(c2ccc(N3CCC(Nc4ccc(Br)cc4F)CC3)c(F)c2)C(=O)O1`, for which the MIC in [1] is 2 mg/L (≈ 3.82 µM); in data set [2], 2 mg/L (≈ 3.82 µM); in data set [3], 1 mg/L (≈ 1.91 µM); in data set [4] it was 2 mg/L (≈ 3.82 µM); in data set [5], 2 mg/L (≈ 3.82 µM).

Regarding `CC(=O)NC[C@H]1CN(c2ccc(N3CCC(Nc4cccc(OC(F)(F)F)c4)CC3)c(F)c2)C(=O)O1`, the MIC in data set [1], in data set [2], in [3], in [4] and in data set [5] was 2 mg/L (≈ 3.92 µM) throughout.

With `CC(=O)NC[C@H]1CN(c2ccc(N3CCC(Nc4ccc(Br)cc4)CC3)c(F)c2)C(=O)O1`, the MIC in data set [6] was 0.125 to 0.25 mg/L (≈ 0.247 to 0.495 µM); in data set [1] it was 1 mg/L (≈ 1.98 µM); in data set [2], 1 mg/L (≈ 1.98 µM); in [7], 0.0625 to 0.25 mg/L (≈ 0.124 to 0.495 µM); in [3], 0.25 mg/L (≈ 0.495 µM); in [4], 0.25 mg/L (≈ 0.495 µM). Moreover, the results for the MIC in data set [9] and in [5] were 0.5 to 1 mg/L (≈ 0.989 to 1.98 µM) and 0.5 mg/L (≈ 0.989 µM), respectively. Besides, the CLint scaled in data set [13] came to 0.208 L/h/kg. Besides, the IC50 in data set [10] was more than 64 µM. Also, the remaining at 0.75 h in data set [11] stood at 97%. Further, the Ratio in data set [14] and in [16] was 64 each time. The inhibition (usually the relative decrease from the control value, in per cent) at 30 µM in [8] was 70%. In data set [15], the half-life – broadly, the time in which the quantity being followed falls by half – was found to be 8.37 h.
